Patent US20230201238A1, “THERAPEUTIC AGENT FOR AN RNA VIRUS INFECTION COMPRISING A COMBINATION OF A PYRAZINE DERIVATIVE AND A THIOPURINE DERIVATIVE” (priority 2020, published 2023)
Where two headings read alike, the source gives them in different places.

What was measured:
[1] = test system: influenza virus (PR/8/34 (H1N1)); assay type: cell-based; conditions: for IC50: Vero cells, 2 days, read-out: The 50% CPE inhibitory concentration of T-705
Vero cells = conditions: with T-705

With `NC(=O)c1nc(F)cnc1O` [T-705] the IC50 ([1]; T-705 alone (6-methylmercaptopurine 0 μM)) was 183 µM, the “50% CPE inhibitory concentration of T-705 in combination compared to T-705 alone” value ([1]; in combination with 6-methylmercaptopurine riboside) was “lower” and the IC50 ([1]; with 6-methylmercaptopurine 0.1 μM) was 89.4 µM. It also gave an IC50 ([1]; with 6-methylmercaptopurine 0.3 μM) of 48.9 µM, an IC50 ([1]; with 6-methylmercaptopurine 1 μM) of 30.6 µM and an IC50 ([1]; with 6-methylmercaptopurine 3 μM) of 21.9 µM. The IC50 ([1]; with 6-methylmercaptopurine 10 μM) was 20.2 µM.
`CSc1ncnc2c1ncn2[C@@H]1O[C@H](CO)[C@@H](O)[C@H]1O` [6-methylmercaptopurine riboside] was tested, and the CPE inhibitory effect ([1]; 6-methylmercaptopurine riboside 10 μM alone) was “did not show a CPE inhibitory effect” and the “Effect on intracellular T-705RTP amount after T-705 treatment” value (Vero cells) was “increased”.
